Laboratory results: patent publication US7910579B2, “Benzoxazole derivatives” (Tohoku University, priority 2006, dated 2011)

How the values were obtained:
[1] = target: T1, amyloid β protein in the brain section of an Alzheimer disease patient (Homo sapiens, UniProt P05067); assay: Staining test on a brain section of an Alzheimer disease patient: amyloid β protein; format: binding; conditions: for Binding to (staining of) amyloid β protein in the brain section of an Alzheimer disease patient: 100 μM solution in 50% ethanol, 10 minutes, paraffin brain section; for Specificity to amyloid β: statement in the description of formulae (II) to (VI)
T1 construct: from tissue; host or cells: paraffin-embedded temporal lobe and hippocampus of Alzheimer disease patients
Excerpt: (§1) (1) Brain specimens at the temporal lobe and the hippocampus of patients to which a definitive diagnosis of Alzheimer disease had been given, and those of normal senile persons were used. The specimens were given by our coworker, Fukushimura Hospital, Longevity Medicine Institute, and we were given their consent of use of the specimens for our study purpose by the bereaved of the patients (Fukushimura Hospital Ethical Review Board Approval No. 20).
(§2) (2) The paraffin-embedded brain tissue was cut Into slices having a thickness of 6 μm or 8 μm, and extended and dried on a slide. The paraffin brain section was steeped for paraffin removal in xylene twice for 10 minutes, 100% ethanol twice for 5 minutes, 90% ethanol for 5 minutes and running water for 10 minutes in that order.
(§3) (3) For pretreatment prior to the staining treatment with a compound of the invention, the sections were steeped for autofluorescence removal with lipofuscin. First, the paraffin-removed sections were dipped in 0.25% KMnO4 solution for 20 minutes. These were washed with PBS, twice for 2 minutes, then dipped in 0.1% K2S2O5/oxalic acid solution for about 5 seconds, and then further washed with PBS, three times for 2 minutes.
(§4) (4) About 150 μl of a 100 μM solution of a compound of the invention dissolved in 50% ethanol was dropwise applied to the section and reacted for 10 minutes. After dipped five times in tap water, the section was entrapped with Fluor Save Reagent (Calbiochem), and analyzed through microscopy with a fluorescence microscope (Nikon, Eclipse 80i). The images were taken with a digital camera (Nikon Dxm 1200F or Photometrics' Cool SNAP ES).
(1) After paraffin removal, the sections were washed in distilled water, twice for 2 minutes. Then, using ImmunoPen, the tissue was marked with a surrounding line; about 150 μl of formic acid was dropwise applied to the section and statically left at room temperature for 5 minutes. The section was washed with tap water for 5 minutes, then dipped in cold PBS-Tween 20 for 2 minutes, and thereafter about 150 μl of 0.05% trypsin solution was dropwise applied to it and reacted at 37° C. for 15 minutes.
(2) In an ice bath, this was washed with cold PBS-Tween 20, twice for 5 minutes, and then 2 drops of blocking serum were applied to it and reacted at 37° C. for 30 minutes. Excess water was removed, and then about 150 μl of a specific antibody to amyloid β protein, 6F/3D (by DAKO, 1/50 dilution) was dropwise applied to it, and reacted at 37° C. for 1 hour.
(3) Further, this was washed with cold PBS-Tween 20, 5 times for 2 minutes, and then 2 drops of an anti-mouse IgG (H+L), goat, biotin-binding solution were applied to it and reacted at 37° C. for 1 hour. Then, this was washed with cold PBS-Tween 20, three times for 2 minutes, and 2 drops of an ABC solution (streptoavidin-biotin-peroxidase composite solution) were applied to it, and left statically as such for 30 minutes. Again this was washed with cold PBS-Tween 20, three times for 2 minutes, and then about 150 μl of a DAB solution (10 mg of DAB was dissolved in 20 ml of 0.05 mol/liter tris-HCl buffer, and just before use, 100 μl of 3% hydrogen peroxide water was added to it) was dropwise applied to it for sufficiently staining it. Then, this was washed with distilled water for 1 minute to stop the reaction, then entrapped and observed through microscopy.

[2] = test system: neurofibrillary tangle in the brain section of an Alzheimer disease patient; assay: Staining test on a brain section of an Alzheimer disease patient: neurofibrillary tangle; format: binding, human; conditions: 100 μM solution in 50% ethanol, 10 minutes, paraffin brain section
Excerpt: as §1, §2, §3
as §4, with “ES). […]” for “ES).”

[3] = target: T2, Tg mouse intracerebral amyloid plaque (Homo sapiens, UniProt P05067); assay: Investigation of transgenic (Tg) mice with amyloid deposition in their brain (fluorescence microscopy of brain sections after intravenous administration); format: in vivo; conditions: APPswe2576/Tau JPL3 mouse, 4 mg/kg intravenous, 1 hour after administration
T2 construct: from tissue; host or cells: brain of Tg mice (Tg2576 or APPswe2576/Tau JNPL3) after intravenous dosing

Acute Toxicity Test = format: in vivo; conditions: Crj:CD1 male mice, tail vein, observed for 7 days
Description: The compounds of the invention were tested for their acute toxicity through intravenous administration thereof to mice. Four Crj:CD1 male mice formed one test group, and some test groups of those mice were used (the mean body weight of the mice of each group was from 31 to 32 g). A test compound was dissolved in a mixture of 1 N HCl, polyethylene glycol-400 and distilled water, or dissolved in DMSO, and then diluted with distilled water. This was administered to each mouse via its tail vein.

[4] = test system: histidine-requiring Salmonella typhimurium TA100 and TA98 strains; assay: Mutagenicity Test (reverse mutation test); format: cell-based
Description: In view of their use, it is desirable that the compounds of the invention have no mutagenicity or have little mutagenicity to a level causing no problem. For investigating the gene mutagenesis of the compounds of the invention, herein carried out was a reverse mutation test with histidine-requiring Salmonella typhimurium TA100 and TA98 strains. Two tests were carried out. One is a test for dose determination test; and the other is for mutagenicity.
The test methods and the mutagenicity of the compounds of the invention are mentioned below. In the dose determination test, six doses of 0.160, 0.800, 4.00, 20.0, 100 and 500 μg/plate (common ratio 5) were tried.
As a result of the dose determination test, when the mutagenicity of the test compound was admitted, then the actual test for mutagenicity was carried out, using the dose capable of giving an accurate dose-reaction curve. When no mutagenicity of the test compound was admitted in the dose determination test and when the growth inhibition of the test cells was admitted therein, then the dose to present the growth inhibition was taken as the maximum dose; and when the growth inhibition was not admitted, then a dose of 5000 μg/plate was taken as the maximum dose. With that, the actual test for mutagenicity was carried out on the level of 6 doses (common ratio 2).
First, a test compound was dissolved or suspended in DMSO, then diluted in order to prepare test compound liquids having a varying concentration.
100 μl of a test compound liquid or a negative control (DMSO) solution was put into a sterilized test tube. Then, for the case in the absence of a metabolic activation system (−S9mix), 500 μl of 0.1 mol/liter sodium-phosphate buffer (pH 7.4) was added to it; and for the case in the presence of a metabolic activation system (+S9mix), 500 μl of S9mix was added to it.
Next, 100 μl of the test strain suspension that had been cultivated with shaking at 37° C. for 8 hours was added to it, and preincubated in a shaking thermostat at 37° C. for 20 minutes. After shaken, 2 ml of top agar was added to it, and the contents were mixed.
Next, the mixture was poured onto a minimal glucose agar plate medium (plate) and spread uniformly thereon, then the top agar was solidified, and the plate was transferred into a thermostat and incubated at 37° C. for 48 hours.
Then, the number of the colonies grown through reverse mutation was counted.
For counting it, […]. After area correction and miss-counting correction, the number of the colonies was computed. When the colony analyzer could not be used owing to the deposition of the test compound or the cell growth inhibition, then the number of the colonies was counted with the naked eye.
In case where the number of the colonies through reverse mutation increased two times or more that of the negative control and where the dose dependency or the reproducibility of the increase was admitted, then the tested sample was decided as positive. When the sample was is decided as positive, then the relative activity that indicates the relative comparative value of the intensity of the mutagenicity of the test compound was obtained according to the following formula: Relative Activity={(number of colonies per plate having the concentration)−(number of colonies per negative control plate)}/the value of concentration (mg/plate).

T1 sequence (P05067 672-713 limits assumed): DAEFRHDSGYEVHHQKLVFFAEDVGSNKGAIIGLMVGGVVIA
T2 sequence (P05067 672-713 limits assumed): as above

Structure (SMILES) | Binding to (staining of) amyloid β protein in the brain section of an Alzheimer disease patient [1] | Specificity to amyloid β [1] | Binding to (staining of) neurofibrillary tangle in the brain section of an Alzheimer disease patient [2] | Passage through the blood-brain barrier and binding to Tg mouse intracerebral amyloid plaque [3] | Maximum Permissible Dose (mg/kg, intravenous administration) (Acute Toxicity Test) | Relative activity (mutagenicity) ([4]; irrespective of the absence or presence of S9mix) | Relative Activity in the presence of S9Mix ([4]; reverse mutation test, +S9mix) | Relative Activity in the absence of S9Mix ([4]; reverse mutation test, -S9mix)
CN1C=CC(=CC=C2C=CC(=O)C=C2)C=C1 [THK-317, 4-[2-(1-methyl-1H-pyridin-4-ylidene)-ethylidene]-cyclohexa-2,5-dienone] | bound to the amyloid β protein | high specificity to amyloid β | bound to the amyloid β protein and the neurofibrillary tangle |  |  |  |  | 
OCC(CF)COc1ccc2nc(/C=C/c3cnc(N4CCOCC4)s3)oc2c1 (stereo not shown) [THK-727, 2-fluoromethyl-3-[2-[2-(2-morpholin-4-yl-thiazol-5-yl)-vinyl]-benzoxazol-6-yloxy]-propan-1-ol] | white space arrow indicates amyloid β protein |  | white space arrow head indicates neurofibrillary tangle | passed through the blood-brain barrier, and bound to the Tg mouse intracerebral amyloid plaque | ≧10 mg/kg | minus | minus | minus
CN1C=CC(=C/C=C2\C=Nc3ccccc32)C=C1 [THK-185, 3-[2-(1-methyl-1H-pyridin-4-ylidene)-ethylidene]-3H-indole] | bound to the amyloid β protein | high specificity to amyloid β | bound to the amyloid β protein and the neurofibrillary tangle |  |  |  |  | 
